From ChEMBL document CHEMBL1151768, “Resin glycoside constituents of Ipomoea pes-caprae (beach morning glory)” (J Nat Prod, 2008)
The source made the active and inactive calls.

Tests used:
[1] = system: Candida albicans; assay: Antimicrobial activity against Candida albicans by agar dilution method; type: functional, organism-based
[2] = system: Escherichia coli; assay: Antimicrobial activity against Escherichia coli by agar dilution method; type: functional, organism-based
[3] = target: Mu-type opioid receptor (Rattus norvegicus) (UniProt P33535); assay: Displacement of [3H]DAMGO from rat mu opioid receptor expressed in GH3 cells; type: cell-based
[4] = system: Bel-7402; assay: Cytotoxicity against human BEL-7402 cells by SRB method; type: functional, cell-based
[5] = system: Klebsiella aerogenes; assay: Antimicrobial activity against Enterobacter aerogenes by agar dilution method; type: functional, organism-based
[6] = system: A549; assay: Cytotoxicity against human A549 cells by SRB method; type: functional, cell-based
[7] = system: P388; assay: Cytotoxicity against mouse P388 cells by MTT assay; type: functional, cell-based
[8] = system: HL-60; assay: Cytotoxicity against human HL60 cells by MTT assay; type: functional, cell-based
[9] = system: Staphylococcus aureus; assay: Antimicrobial activity against Staphylococcus aureus by agar dilution method; type: functional, organism-based
[10] = system: Bacillus subtilis; assay: Antimicrobial activity against Bacillus subtilis by agar dilution method; type: functional, organism-based

Measured: Activity

Mu-type opioid receptor (Rattus norvegicus), sequence (P33535 whole entry): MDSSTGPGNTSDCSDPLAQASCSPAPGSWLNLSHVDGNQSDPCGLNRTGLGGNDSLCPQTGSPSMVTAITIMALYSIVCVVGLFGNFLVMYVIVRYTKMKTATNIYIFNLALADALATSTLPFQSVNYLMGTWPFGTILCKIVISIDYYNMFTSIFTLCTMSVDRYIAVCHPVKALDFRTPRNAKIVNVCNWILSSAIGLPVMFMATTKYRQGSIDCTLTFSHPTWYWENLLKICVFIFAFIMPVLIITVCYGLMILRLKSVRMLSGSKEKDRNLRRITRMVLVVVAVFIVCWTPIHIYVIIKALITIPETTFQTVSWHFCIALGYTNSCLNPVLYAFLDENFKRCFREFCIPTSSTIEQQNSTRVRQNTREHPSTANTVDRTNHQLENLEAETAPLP

CCCCCCCCCC(=O)O[C@H]1[C@H](O[C@@H]2[C@@H](O)[C@H]3OC(=O)CCCCCCCCCC[C@H](CCCCC)O[C@@H]4O[C@H](C)[C@H](O)[C@H](O)[C@H]4O[C@@H]3O[C@H]2C)O[C@@H](C)[C@H](O[C@@H]2O[C@@H](C)[C@H](OC(=O)C(C)C)[C@@H](OC(=O)/C=C/c3ccccc3)[C@H]2O)[C@H]1O[C@@H]1O[C@@H](C)[C@H](O)[C@@H](O)[C@H]1O
inactive: all assays above
